Data from patent US20230330094A1, “COMBINATION COMPOSITIONS AND METHODS FOR TREATING CANCER” (The Board of Supervisors of Louisiana State University and …, priority 2020, published 2023).
Entries after “also recorded” stand apart in the source; their conditions may differ.

What was measured:
[1] = tested on: luciferase-modified U87MG tumor cells; assay: In vivo bioluminescent imaging of intracranial tumor growth, orthotopic GBM mouse model; conditions: imaging days 13, 20 and 30; vs saline/vehicle
[2] = tested on: luciferase-modified U87MG tumor cells; assay: Ex vivo T1-weighted MRI tumor volume, orthotopic GBM mouse model; format: in vivo; conditions: day 30, ex vivo MRI; vs saline
Procedure: Athymic nude female mice (Charles Rivers Laboratories and Envigo), 6 to 8 weeks of age, were anesthetized with a ketamine/xylazine cocktail solution (100 mg/kg; 10 mg/kg). Then, mice were secured in a stereotactic head frame and a midline 1 cm incision over the scalp was made. Natural tears lubricant was applied to the eyes. For each mouse, 5 × 10^6 U87MG cells in 5 µL serum free Dulbecco’s Modified Eagle Medium (DMEM) tagged with a luciferase […] gene were implanted into the right hippocampus using a 10 µL Hamilton syringe at the following coordinates, in reference to the bregma: 1.5 mm lateral, 1.5 mm posterior and 3.5 mm in depth; the needle was lowered to 3.5 mm and pulled up by 1 mm, prior to the injection (Marrero et al., 2014) (FIG. 1B). Rectal and cranial temperatures will be maintained at 36-37° C. during surgical procedure. […]
Treatment was administered starting on day 13 after implantation, and intracranial tumor growth was quantified using in vivo bioluminescent imaging on days 13 (before treatment) and then 20 and 30. […]
Cheshire image processing software (Hayden Image/Processing Group, Waltham, MA), was used to manually outline whole brain and tumor volumes enhanced by Gd deposition. […] Whole brain and tumor volumes (mm^3) were extracted and analyzed (Jeffes et al., 2005; Blasiak et al., 2013). […]

[3] = Physiological variables (body weight, temperature, survival) in GBM mouse model; format: in vivo
Procedure: Athymic nude female mice (Charles Rivers Laboratories and Envigo), 6 to 8 weeks of age, were anesthetized with a ketamine/xylazine cocktail solution (100 mg/kg; 10 mg/kg). Then, mice were secured in a stereotactic head frame and a midline 1 cm incision over the scalp was made. Natural tears lubricant was applied to the eyes. […] Rectal and cranial temperatures will be maintained at 36-37° C. during surgical procedure. The incision was closed using black monofilament nylon 5.0 sterile sutures and the area was cleaned with betadine solution. The mice were placed in individual cages and observed daily for weight, temperature, and locomotor changes. Mice were perfused at the end of the 30-day survival, brains removed and ex vivo MRI imaging were conducted.
Mice were anesthetized with a ketamine/xylazine cocktail solution (100 mg/kg; 10 mg/kg) and secured in a stereotactic head frame. A midline, 1 cm incision was made over the scalp. Natural tear lubricant was applied to the eyes. For each mouse, 5 × 10^6 U87MG cells in 5 µL serum-free Dulbecco’s Modified Eagle Medium (DMEM) were injected into the right hippocampus using a 10 µL Hamilton syringe at the following coordinates related to the bregma: 1.5 mm lateral, 1.5 mm posterior, and 3.5 mm in depth. […]

recurrent GBM = conditions: single agent or in combination with chemotherapy; cited from earlier work
P2×2 = biological target: T1, P2×2 (Homo sapiens, UniProt Q9UBL9); conditions: cited from earlier work
T1 sequence (Q9UBL9 1-471): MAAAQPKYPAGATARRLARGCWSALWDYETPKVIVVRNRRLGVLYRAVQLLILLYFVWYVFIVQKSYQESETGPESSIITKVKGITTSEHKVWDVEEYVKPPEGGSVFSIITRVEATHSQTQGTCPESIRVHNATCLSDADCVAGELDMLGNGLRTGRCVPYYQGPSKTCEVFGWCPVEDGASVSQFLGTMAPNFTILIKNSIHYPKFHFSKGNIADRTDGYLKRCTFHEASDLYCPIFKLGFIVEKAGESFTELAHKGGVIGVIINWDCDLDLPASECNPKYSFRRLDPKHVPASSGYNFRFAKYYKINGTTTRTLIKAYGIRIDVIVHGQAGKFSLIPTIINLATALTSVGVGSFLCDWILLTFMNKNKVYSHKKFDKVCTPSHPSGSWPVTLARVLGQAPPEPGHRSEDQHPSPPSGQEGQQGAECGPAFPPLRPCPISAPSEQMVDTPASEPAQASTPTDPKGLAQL

P2Xs = conditions: cited from earlier work
P2Y 2 = P2Y 2 (Homo sapiens, UniProt P41231); conditions: cited from earlier work
P2Y4 = P2Y4 (Homo sapiens, UniProt P51582); conditions: cited from earlier work
Chain of P2Y4 (P51582 whole entry, species assumed): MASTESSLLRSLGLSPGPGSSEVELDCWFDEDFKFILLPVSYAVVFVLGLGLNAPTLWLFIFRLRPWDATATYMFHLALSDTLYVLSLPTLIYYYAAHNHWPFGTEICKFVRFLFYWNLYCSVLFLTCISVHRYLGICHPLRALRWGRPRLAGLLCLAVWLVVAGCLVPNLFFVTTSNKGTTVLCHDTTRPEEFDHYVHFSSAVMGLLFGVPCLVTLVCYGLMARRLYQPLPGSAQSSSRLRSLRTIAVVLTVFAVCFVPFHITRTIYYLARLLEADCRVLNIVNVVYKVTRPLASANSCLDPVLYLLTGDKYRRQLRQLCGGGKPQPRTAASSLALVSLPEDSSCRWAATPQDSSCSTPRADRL

Chain of P2Y 2 (P41231 whole entry, species assumed): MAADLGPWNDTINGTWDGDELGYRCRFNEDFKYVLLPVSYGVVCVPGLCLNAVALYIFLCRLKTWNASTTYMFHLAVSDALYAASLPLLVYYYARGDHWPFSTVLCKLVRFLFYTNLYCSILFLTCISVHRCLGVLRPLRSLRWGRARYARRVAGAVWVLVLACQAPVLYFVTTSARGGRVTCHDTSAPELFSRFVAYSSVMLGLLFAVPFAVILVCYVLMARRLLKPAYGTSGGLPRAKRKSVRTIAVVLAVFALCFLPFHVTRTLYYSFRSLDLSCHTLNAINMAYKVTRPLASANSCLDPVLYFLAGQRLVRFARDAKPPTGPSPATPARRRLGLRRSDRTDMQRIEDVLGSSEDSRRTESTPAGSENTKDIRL

Avastin: recombinant humanized anti-VEGF monoclonal antibody
Bioluminescent tumor growth/size vs vehicle (in words) [1]: reduced tumor size; also recorded: repress orthotopic GBM; also recorded: significantly reduced tumorigenesis; also recorded: significant reduction in growth and size
MRI (T1WI) tumor volume reduction compared to vehicle [2]: 67%
MRI (T1WI) tumor volume vs vehicle (in words) [2]: reduced GBM tumor volumes
Survival ([3]; 30-day survival period): improved survival
Change in rectal temperature compared to vehicle ([3]; during the 30 days of survival): No significant changes
Radiographic response rate (recurrent GBM): up to 40%

Cc1ccc(C(=O)Nc2ccc(S(=O)(=O)O)c3cc(S(=O)(=O)O)cc(S(=O)(=O)O)c23)cc1NC(=O)c1cccc(NC(=O)Nc2cccc(C(=O)Nc3cc(C(=O)Nc4ccc(S(=O)(=O)O)c5cc(S(=O)(=O)O)cc(S(=O)(=O)O)c45)ccc3C)c2)c1 [Suramin]
pEC50 (P2×2) (P2×2): 4.5
pEC50 (P2Xs) (P2Xs): 5.4
pEC50 (P2Y 2) (P2Y 2): 4.3
pEC50 (P2Y4) (P2Y4): 4.0
